The values below come from article PMC8618024 (2021).

“Also recorded” adds a separate entry of the source.

Series [1] is described as follows: Strain m6 cells in MSM, pH 7, at 40 °C. To be noted: Sphingopyxis sp. m6, 40 °C, up to six days.
The test system of series [2] is recombinant MlrA. In words: CEs (cell-free extracts) of recombinant mlrA-HMBP-pET28a/BL21 in sterile water. The conditions noted are these: mlrA-HMBP-pET28a/BL21, 37 °C, up to 48 h.
Series [3] can be described thus: Strain m6 cells resuspended in sterile MSM (mineral salt medium). The conditions noted are these: Sphingopyxis sp. m6, 30 °C, up to six days.
Series [4] is described as follows: Sphingomonas sp. B-9 cells. To be noted: cited from earlier work.
The subject of series [5] is MlrA. In words: suspension of intact recombinant mlrA-HMBP-pET28a/BL21 in sterile water. To be noted: mlrA-HMBP-pET28a/BL21, 37 °C, up to 144 h.
The nature of series [6]: natural microbial communities in sediments. To be noted: cited from earlier work.
The nature of series [7]: CEs from HMBP-pET28a/BL21 (negative control) in sterile water. The conditions noted are these: HMBP-pET28a/BL21, 37 °C, up to 12 h.
The nature of series [8]: suspension of HMBP-pET28a/BL21 (negative control) in sterile water. To be noted: HMBP-pET28a/BL21, 37 °C, up to 144 h.

Turning to D-MeAsp, L-Arg, Adda, D-Glu, and Mdhb, the not cleaved entry in series [1] is on record as “the toxin concentration barely decreased”; in series [7], “remaining essentially unchanged”; in series [8] it was “remaining essentially unchanged”. Further, the cleaved bond result is “Arg-Adda, first_seen” in series [2]; “Arg-Adda, first_seen; also recorded: Adda-Glu; also recorded: Glu-Mdhb; also recorded: Mdhb-MeAsp” in series [3]; “Arg-Adda, first_seen” in series [5]. Also, the fragment found result is “linear NOD and Adda” in series [4]; “linear NOD and Adda and H-Glu-Mdhb-MeAsp-Arg-OH and H-Adda-Glu-Mdhb-MeAsp-OH and H-Adda-Glu-Mdhb-MeAsp-Cit-OH” in series [6].
